The values below come from patent publication US20250368623A1, “PYRIDAZINONE-DERIVED COMPOUNDS FOR THE MODULATION OF MYC AND FOR MEDICAL USES” (GENETIC INTELLIGENCE, INC, priority 2022, published 2025).

What all share (format): cell-based
One experiment deals with HepG2. In words: CCK-8 cell viability assay, HepG2. The conditions noted are these: Homo sapiens; CCK-8, HepG2, 2-day or 3-day incubation, cytotoxic effect.
A further experiment concerns JeKo-1. The experiment can be described thus: CCK-8 cell viability assay, JeKo-1. The following applies: Homo sapiens; CCK-8, JeKo-1, 2-day or 3-day incubation, cytotoxic effect. As for the experimental part: (§1) The effect of test compounds on cell viability is determined using the CCK-8 assay kit (Dojindo CK04-1000) according to the following protocol. The human cancer cell lines (e.g., A549, HepG2, JeKo-1, MDA-MB-231, etc.) and non-cancer human cell lines (e.g., HEK-293, HaCaT, etc.), are seeded at 20,000 cells per well in a 96-well plate. After 1 day, the cells are treated with test compounds at various final concentrations (e.g., 10 nM, 31.6 nM, 100 nM, 316 nM, 1 μM, 3.16 μM, 10 μM, 20 μM, etc.). After a 2-day or 3-day incubation period, 10 μL of CCK-8 solution, which contains the WST-8 dye, is added to each well according to the kit manufacturer's protocol. After incubation for 1-4 hours, the absorbance at 450 nm is measured using a microplate reader. The absorbance at 450 nm measures the amount of WST-8 that is reduced to WST-8 formazan by cellular dehydrogenases, which is directly proportional to the number of living cells. The cytotoxic effect of test compounds at different concentrations is calculated by subtracting from 1 the ratio of absorbance of the compound-treated sample at 450 nm to that of the no-compound, solvent only (DMSO)-treated sample. A higher number indicates a greater cytotoxic effect of the test compound on cells (corresponding to a greater reduction in cellular dehydrogenase activity), and vice versa. The IC50 values for the cytotoxic effect of each test compound in A549, HepG2, JeKo-1, and/or MDA-MB-231 cells are determined by plotting a dose-response curve to calculate the concentration of test compound that produces half of the maximum cytotoxic effect. The cytotoxic effect and IC50 of test compounds are also measured in a non-cancer human cell line (e.g., HEK-293, and/or HaCaT) as a proxy for healthy cells to determine the therapeutic window of the test compounds (i.e., the concentration range at which the test compounds selectively kill cancer cells but not healthy cells). The therapeutic index of a test compound is defined herein as its IC50 in HEK-293 cells divided by its IC50 in HepG2 cells.

The test system of a further experiment is MDA-MB-231. In words: CCK-8 cell viability assay, MDA-MB-231. The conditions noted are these: Homo sapiens; CCK-8, MDA-MB-231, 2-day or 3-day incubation, cytotoxic effect. The protocol: as §1
Background: Formazan colour is commonly taken as a measure of viable cells.

For a further experiment, the system named is A549. In words: CCK-8 cell viability assay, A549. The conditions noted are these: Homo sapiens; CCK-8, A549, 2-day or 3-day incubation, cytotoxic effect.

Procedure for A549: The effect of test compounds on cell viability is determined using the CCK-8 assay kit (Dojindo CK04-1000) according to the following protocol. The human cancer cell lines (e.g., A549, HepG2, JeKo-1, MDA-MB-231, etc.) and non-cancer human cell lines (e.g., HEK-293, HaCaT, etc.), are seeded at 20,000 cells per well in a 96-well plate. After 1 day, the cells are treated with test compounds at various final concentrations (e.g., 10 nM, 31.6 nM, 100 nM, 316 nM, 1 μM, 3.16 μM, 10 μM, 20 μM, etc.). After a 2-day or 3-day incubation period, 10 μL of CCK-8 solution, which contains the WST-8 dye, is added to each well according to the kit manufacturer's protocol. After incubation for 1-4 hours, the absorbance at 450 nm is measured using a microplate reader. The absorbance at 450 nm measures the amount of WST-8 that is reduced to WST-8 formazan by cellular dehydrogenases, which is directly proportional to the number of living cells. The cytotoxic effect of test compounds at different concentrations is calculated by subtracting from 1 the ratio of absorbance of the compound-treated sample at 450 nm to that of the no-compound, solvent only (DMSO)-treated sample. […]
Procedure for HepG2: The effect of test compounds on cell viability is determined using the CCK-8 assay kit (Dojindo CK04-1000) according to the following protocol. The human cancer cell lines (e.g., A549, HepG2, JeKo-1, MDA-MB-231, etc.) and non-cancer human cell lines (e.g., HEK-293, HaCaT, etc.), are seeded at 20,000 cells per well in a 96-well plate. After 1 day, the cells are treated with test compounds at various final concentrations (e.g., 10 nM, 31.6 nM, 100 nM, 316 nM, 1 μM, 3.16 μM, 10 μM, 20 μM, etc.). After a 2-day or 3-day incubation period, 10 μL of CCK-8 solution, which contains the WST-8 dye, is added to each well according to the kit manufacturer's protocol. After incubation for 1-4 hours, the absorbance at 450 nm is measured using a microplate reader. The absorbance at 450 nm measures the amount of WST-8 that is reduced to WST-8 formazan by cellular dehydrogenases, which is directly proportional to the number of living cells. The cytotoxic effect of test compounds at different concentrations is calculated by subtracting from 1 the ratio of absorbance of the compound-treated sample at 450 nm to that of the no-compound, solvent only (DMSO)-treated sample. […] The IC50 values for the cytotoxic effect of each test compound in A549, HepG2, JeKo-1, and/or MDA-MB-231 cells are determined by plotting a dose-response curve to calculate the concentration of test compound that produces half of the maximum cytotoxic effect.

`Cc1nc(C)c(-c2ccc(=O)n(CC3CCN(c4ncnc5ncccc45)CC3(F)F)n2)s1` (stereo not shown) [6-(2,4-dimethyl-1,3-thiazol-5-yl)-2-(3,3-difluoro-1-pyrido[2,3-d]pyrimidin-4-ylpiperidin-4-yl)methylpyridazin-3-one]: the IC50 came to 300 nM in the experiment on HepG2, 200 nM in the experiment on JeKo-1, 1000 nM in the experiment on MDA-MB-231 and 1800 nM with A549.

A word on the IC50: it is the midpoint of a concentration-inhibition curve. High values mean a need for much substance, low ones inhibition by little substance.
